Results from BigSolDB 2.1.

O=C(O)c1cc2ccccc2cc1O
solubility (mole fraction)
Settings	in acetic acid	in acetone	in ethanol	in ethyl acetate	in isobutanol	in isopropanol	in methanol	in methyl acetate	in n-butanol	in n-propanol
293.15 K	0.00556	0.0363	0.0218	0.0222	0.0147	0.0234	0.0131	0.0204	0.0268	0.0234
298.15 K	0.00672	0.0389	0.0258	0.0251	0.0174	0.0267	0.0155	0.0225	0.03	0.0259
303.15 K	0.00786	0.0423	0.0294	0.0278	0.0207	0.0306	0.018	0.025	0.0346	0.0288
308.15 K	0.00913	0.0461	0.0331	0.0309	0.0236	0.035	0.0208	0.0286	0.0382	0.0323
313.15 K	0.0105	0.0506	0.037	0.0338	0.0279	0.0406	0.0239	0.0318	0.0431	0.0372
318.15 K	0.0121	0.0547	0.0415	0.0375	0.0316	0.0446	0.0271	0.0349	0.0466	0.0402
323.15 K	0.014	0.0607	0.0469	0.0417	0.0377	0.0514	0.0313	0.0402	0.0529	0.0453
328.15 K	0.0164	0.0661	0.0537	0.0468	0.0421	0.0565	0.0358	0.0447	0.0579	0.0513
333.15 K	0.0192	–	0.0619	0.0533	0.0501	0.0649	0.0415	–	0.0663	0.0574
